In ChEMBL document CHEMBL2046323, “Synthesis, structure-activity relationship studies, and X-ray crystallographic analysis of arylsulfonamides as potent carbonic anhydrase inhibitors” (J Med Chem, 2012) one finds Ki data, which are given here for 19 compounds.

Assay [1] addresses Carbonic anhydrase 9 (Homo sapiens, UniProt Q16790).
Assay [2] has as its target Carbonic anhydrase 7 (Homo sapiens, UniProt P43166).
Assay [3] deals with Carbonic anhydrase 14 (Homo sapiens, UniProt Q9ULX7).
The target in assay [4] is Carbonic anhydrase 2 (Homo sapiens, UniProt P00918).
Assay [5] addresses Carbonic anhydrase 1 (Homo sapiens, UniProt P00915).

Carbonic anhydrase 1, sequence (P00915 whole entry): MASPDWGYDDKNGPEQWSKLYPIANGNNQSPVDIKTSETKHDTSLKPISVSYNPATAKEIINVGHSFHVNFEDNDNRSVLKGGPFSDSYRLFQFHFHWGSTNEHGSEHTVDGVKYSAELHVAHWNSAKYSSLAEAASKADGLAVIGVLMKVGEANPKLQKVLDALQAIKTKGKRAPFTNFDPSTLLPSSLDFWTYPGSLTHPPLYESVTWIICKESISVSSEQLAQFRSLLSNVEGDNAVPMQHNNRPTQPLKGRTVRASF
Carbonic anhydrase 7, sequence (P43166 whole entry): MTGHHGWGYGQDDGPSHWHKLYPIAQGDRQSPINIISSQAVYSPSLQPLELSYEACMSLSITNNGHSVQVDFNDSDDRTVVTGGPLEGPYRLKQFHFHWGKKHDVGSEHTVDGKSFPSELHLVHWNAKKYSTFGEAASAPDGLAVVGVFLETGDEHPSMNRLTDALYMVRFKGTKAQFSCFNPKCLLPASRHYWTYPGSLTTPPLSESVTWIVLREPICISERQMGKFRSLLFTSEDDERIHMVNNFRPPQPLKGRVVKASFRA
Carbonic anhydrase 14, sequence (Q9ULX7 whole entry): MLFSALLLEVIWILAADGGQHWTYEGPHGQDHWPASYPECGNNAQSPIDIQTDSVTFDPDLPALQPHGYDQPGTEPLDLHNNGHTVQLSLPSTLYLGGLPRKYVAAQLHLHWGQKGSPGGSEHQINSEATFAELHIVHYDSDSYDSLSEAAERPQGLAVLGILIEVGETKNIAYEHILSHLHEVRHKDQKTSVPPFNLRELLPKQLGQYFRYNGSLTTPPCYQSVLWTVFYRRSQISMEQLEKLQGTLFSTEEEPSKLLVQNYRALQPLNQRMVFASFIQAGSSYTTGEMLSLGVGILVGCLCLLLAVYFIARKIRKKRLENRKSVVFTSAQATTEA

On to `COc1cccc(CCNC(=O)c2ccc(S(N)(=O)=O)cc2)c1`, for which the Ki (usually the dissociation constant of the complex between target and ligand, obtained from inhibition or displacement) in assay [1] is 0.0065 µM.

With `COc1ccc2c(c1)CCNC2c1ccc(S(N)(=O)=O)cc1` (racemic), the affinity in assay [1], expressed as Ki, was 0.0154 µM.

The compound `CCOc1ccc2c(c1)CCN(S(N)(=O)=O)C2c1ccc(S(N)(=O)=O)cc1` (configuration not stated) showed a Ki in assay [1] of 0.0521 µM.

For the compound `CCCOc1ccc2c(c1)CCN=C2c1ccc(S(N)(=O)=O)cc1`, the Ki in assay [2] worked out at 0.008 µM; in assay [3] it was 0.0087 µM; in assay [4], 0.0088 µM; in assay [1], 0.0161 µM; in assay [5], 0.0831 µM.

Regarding `NS(=O)(=O)c1ccc(C2NCCc3cc(O)ccc32)cc1` (configuration not stated), the affinity in assay [1], expressed as Ki, was 0.0683 µM.

With `CCCOc1cccc(CCNC(=O)c2ccc(S(N)(=O)=O)cc2)c1`, the affinity in assay [1] corresponds to a Ki of 0.0083 µM.

Regarding `CCOc1cccc(CCNC(=O)c2ccc(S(N)(=O)=O)cc2)c1`, in assay [1], the affinity corresponds to a Ki of 0.0081 µM.

In assay [1], `COc1cc2c(cc1OC)C(c1ccc(S(N)(=O)=O)cc1)N(S(N)(=O)=O)CC2` (configuration not stated) showed a Ki of 0.076 µM.

Consider `COc1ccc2c(c1)CCN=C2c1ccc(S(N)(=O)=O)cc1`, for which the Ki in assay [1] stood at 0.0183 µM.

With `COc1cc2c(cc1OC)C(c1ccc(S(N)(=O)=O)cc1)NCC2` (configuration not stated), the Ki in assay [1] amounted to 0.13 µM.

Take `COc1cc2c(cc1OC)C(c1ccc(S(N)(=O)=O)cc1)=NCC2`: the affinity in assay [1], expressed as Ki, was 0.21 µM.

Regarding `NS(=O)(=O)c1ccc(C2c3ccc(O)cc3CCN2S(N)(=O)=O)cc1` (configuration not stated), in assay [1], the Ki was determined as 0.0079 µM.

In the case of `NS(=O)(=O)c1ccc(C(=O)NCCc2cccc(O)c2)cc1`, in assay [1], the affinity, expressed as Ki, was 0.0417 µM.

`COc1ccc(CCNC(=O)c2ccc(S(N)(=O)=O)cc2)cc1OC` registered a Ki in assay [1] of 0.0038 µM.

In the case of `CCCOc1ccc2c(c1)CCNC2c1ccc(S(N)(=O)=O)cc1` (racemic), affinity in assay [1] was put at a Ki of 0.0092 µM.

As for `CCOc1ccc2c(c1)CCNC2c1ccc(S(N)(=O)=O)cc1` (racemic), the Ki in assay [1] was 0.0092 µM.

`COc1ccc2c(c1)CCN(S(N)(=O)=O)C2c1ccc(S(N)(=O)=O)cc1` (configuration not stated) returned a Ki in assay [1] of 0.0065 µM.

For `CCOc1ccc2c(c1)CCN=C2c1ccc(S(N)(=O)=O)cc1`, the inhibitory constant (Ki) in assay [2] amounted to 0.0065 µM; in assay [3], 0.0179 µM; in assay [4], 0.0875 µM; in assay [1], 0.0072 µM; in assay [5], 1.05 µM.

Compound `NS(=O)(=O)c1ccc(C2=NCCc3cc(O)ccc32)cc1` registered a Ki in assay [1] of 0.0515 µM.
